From publication PMC8910447 (International Journal of Molecular Sciences, 2022)
Read-outs that look alike come from different tables or passages of the source.

How the values were obtained:
EBOVpp = experiment: microbe, parasite or virus in culture; type: cell-based, Zaire ebolavirus
in vitro = conditions: human
EBOV-GP = EBOV-GP (Zaire ebolavirus, UniProt Q05320); experiment: biochemical; type: binding, Ebola virus
[1] = test system: pCMV C-His (negative control); type: binding
[2] = test system: infectious recombinant EBOV; conditions: read-out: IC50 against infectious recombinant EBOV infection; cited from earlier work
[3] = Zaire ebolavirus, A549, read-out: IC50 (M) against infection with EBOVpp
[4] = Zaire ebolavirus, A549, n = 3, read-out: EBOVpp IC50

Chain of EBOV-GP (Q05320 33-676 limits assumed): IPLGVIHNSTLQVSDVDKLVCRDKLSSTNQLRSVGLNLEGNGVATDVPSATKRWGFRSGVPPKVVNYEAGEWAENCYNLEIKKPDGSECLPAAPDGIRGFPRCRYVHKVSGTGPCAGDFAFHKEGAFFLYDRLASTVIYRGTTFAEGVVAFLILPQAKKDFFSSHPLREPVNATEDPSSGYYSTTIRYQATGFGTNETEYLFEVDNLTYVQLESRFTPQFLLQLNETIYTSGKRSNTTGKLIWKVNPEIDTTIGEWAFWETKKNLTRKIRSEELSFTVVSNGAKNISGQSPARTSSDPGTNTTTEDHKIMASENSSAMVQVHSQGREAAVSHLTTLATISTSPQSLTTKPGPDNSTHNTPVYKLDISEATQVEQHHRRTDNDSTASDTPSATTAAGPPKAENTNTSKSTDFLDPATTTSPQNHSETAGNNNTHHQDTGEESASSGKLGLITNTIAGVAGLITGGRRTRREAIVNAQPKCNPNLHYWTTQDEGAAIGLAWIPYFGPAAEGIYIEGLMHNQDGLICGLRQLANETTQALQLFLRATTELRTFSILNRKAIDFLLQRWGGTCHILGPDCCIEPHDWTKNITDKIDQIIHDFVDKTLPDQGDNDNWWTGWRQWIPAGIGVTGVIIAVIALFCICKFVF

## O=C(O[C@@H]1Cc2c(O)cc(O)cc2O[C@@H]1c1ccc(O)c(O)c1)c1ccccc1 [13b, (2R,3R)-2-(3,4-Dihydroxyphenyl)-5,7-dihydroxychroman-3-yl benzoate]
EBOVpp; Zaire ebolavirus, A549, read-out: inhibitory effect against EBOVpp infection
  inhibition at 10 µM: > 60%

## Oc1cc(O)c2c(c1)O[C@H](c1ccc(O)c(O)c1)[C@@H](O)C2 [(+) Catechin (4), (+)-catechin]
In vitro
  CC50: > 34.5 µM
EBOVpp; [3]
  IC50: 3.6e-05 M
EBOVpp; [4]
  IC50: 3.6e-05 M

## Oc1cc(O)c2c(c1)O[C@H](c1ccc(O)c(O)c1)[C@H](O)C2 [(−) Epicatechin (5), (−)-epicatechin]
In vitro
  CC50: > 172 µM
EBOVpp
  Selectivity Index (SI): >7.79
EBOVpp; [3]
  IC50: 2.21e-05 M
EBOVpp; [4]
  IC50: 2.21e-05 M

## O=C(O[C@@H]1Cc2c(O)cc(O)cc2O[C@@H]1c1ccc(O)c(O)c1)c1cc(O)c(O)c(O)c1 [ECG (9), epicatechin 3-O-gallate]
In vitro
  CC50: > 22.6 µM
EBOVpp
  Selectivity Index (SI): >7.68
EBOVpp; [3]
  IC50: 2.95e-06 M
EBOVpp; [4]
  IC50: 2.95e-06 M

## O=C(O[C@@H]1Cc2c(O)cc(O)cc2O[C@@H]1c1cc(O)c(O)c(O)c1)c1cc(O)c(O)c(O)c1 [EGCG (8), (−)-epigallocatechin-3-O-gallate]
In vitro
  CC50: > 21.8 µM
EBOVpp
  Selectivity Index (SI): >7.81
EBOVpp; [3]
  IC50: 2.8e-06 M
EBOVpp; [4]
  IC50: 2.8e-06 M

## Oc1cc(O)c2c(c1)O[C@H](c1cc(O)c(O)c(O)c1)[C@H](O)C2 [Epigallocatechin (11), epigallocatechin]
In vitro
  CC50: > 163 µM
EBOVpp
  Selectivity Index (SI): >29.5
EBOVpp; [3]
  IC50: 5.53e-06 M
EBOVpp; [4]
  IC50: 5.53e-06 M

## Oc1cc(O)c2c(c1)O[C@H](c1cc(O)c(O)c(O)c1)[C@@H](O)C2 [Gallocatechin (10), gallocatechin]
In vitro
  CC50: > 163 µM
EBOVpp
  Selectivity Index (SI): >13.1
EBOVpp; [3]
  IC50: 1.24e-05 M
EBOVpp; [4]
  IC50: 1.24e-05 M

## Oc1cc(O)c2c(c1)O[C@H](c1ccc(O)c(O)c1)[C@H](O)[C@H]2c1c(O)cc(O)c2c1O[C@H](c1ccc(O)c(O)c1)[C@@H](O)C2 [Procyanidin B1 (6), Procyanidin B1]
In vitro
  CC50: > 86.5 µM
EBOVpp
  Selectivity Index (SI): >91.1
EBOVpp; [3]
  IC50: 9.13e-07 M
EBOVpp; [4]
  IC50: 9.5e-07 M

## Oc1cc(O)c2c(c1)O[C@H](c1ccc(O)c(O)c1)[C@H](O)[C@H]2c1c(O)cc(O)c2c1O[C@H](c1ccc(O)c(O)c1)[C@H](O)C2 [Procyanidin B2 (1), procyanidin B2]
EBOV-GP
  Kd: 13 µM
In vitro
  CC50: > 86.5 µM
[1]
  binding curve with the negative control: could not produce a binding curve
EBOVpp
  Selectivity Index (SI): >104
EBOVpp; [3]
  IC50: 8.29e-07 M
EBOVpp; [4]
  IC50: 8.3e-07 M

## Oc1cc(O)c2c(c1)O[C@H](c1ccc(O)c(O)c1)[C@@H](O)[C@@H]2c1c(O)cc(O)c2c1O[C@H](c1ccc(O)c(O)c1)[C@@H](O)C2 [Procyanidin B3 (7), Procyanidin B3]
In vitro
  CC50: > 86.5 µM
EBOVpp
  Selectivity Index (SI): >57.1
EBOVpp; [4]
  IC50: 1.52e-06 M

## Oc1cc(O)c2c(c1)O[C@H](c1ccc(O)c(O)c1)[C@H](O)[C@H]2c1c(O)cc(O)c2c1O[C@H](c1ccc(O)c(O)c1)[C@H](O)[C@H]2c1c(O)cc(O)c2c1O[C@H](c1ccc(O)c(O)c1)[C@H](O)C2 [Procyanidin C1 (2), procyanidin C1]
In vitro
  CC50: > 11.5 µM
EBOVpp; [4]
  IC50: > 1.15e-05 M

## Oc1cc(O)c2c(c1)OC(c1ccc(O)c(O)c1)C(O)C2c1c(O)cc(O)c2c1OC(c1ccc(O)c(O)c1)C(O)C2c1c(O)cc(O)c2c1OC(c1ccc(O)c(O)c1)C(O)C2c1c(O)cc(O)c2c1OC(c1ccc(O)c(O)c1)C(O)C2 (stereo not drawn) [Procyanidin tetramer (3), epicatechin-(4β→8)-epicatechin-(4β→8)-epicatechin-(4β→8)-epicatechin]
In vitro
  CC50: > 11.5 µM
EBOVpp; [4]
  IC50: > 1.15e-05 M

## CN(C)CCOc1ccc(/C(=C(/CCCl)c2ccccc2)c2ccccc2)cc1 [Toremifene, toremifene, reference compound]
In vitro
  CC50: 2.92 µM
[1]
  binding curve with the negative control: could not produce a binding curve
EBOVpp; [4]
  IC50: 1.7e-07 M

## O=C(O)c1cc(O)c(O)c(O)c1 [gallic acid]
[2]
  IC50: 25.4 µM
